Series [1] is described as follows: Absorption and fluorescence properties in water. Type of series: physicochemical. The protocol:
To determine the wavelength of light, at which 1,1-dimethyl-2-[(E)-2-phenylethenyl]-1H-benzo[e]indole derivatives should be irradiated for the investigation of their photodynamic activity, the absorption and fluorescence properties thereof were measured in water. The excitation wavelength λex was set to 380 nm. Based on the results an in-house constructed LED based light source specifically designed for the irradiation of 96-well microplates and Petri dishes (Tomecka et al., CZ302829B6, 2006) was chosen, with a maximal wavelength emission of 414 nm and light intensity set to 20 mW/cm^2.

Series [2] relates to G361 cells (human skin melanoma). Description: MTT cell viability assay with photodynamic treatment. In kind it is cell-based. The protocol:
(§1) For photodynamic treatments, G361 cells (human skin melanoma) were cultivated in DMEM medium without phenol red supplemented with 10% fetal bovine serum, 100 U/mL penicillin, 100 μg/mL streptomycin, 2 mM glutamine, at 37° C. in 5% CO2 atmosphere. Cells were treated with test compounds and after 4 h were irradiated (the maximal wavelength emission of 414 nm and different total doses up to 10 J/cm^2). Further cultivation lasted for subsequent 16, 24 or 72 h.
Cell viability (EC50) was determined using the MTT (Sigma-Aldrich) assay in 96-well microplates. Cells were seeded, next day treated with test compounds for 4 h and subsequently irradiated (the maximal wavelength emission of 414 nm and total dose of 2.5 and 10 J/cm^2). After irradiation, the cells were incubated for further 72 h and then the MTT solution was added. Cells were incubated for another 4 h at 37° C. and then the 0.1% SDS was added to the wells to solubilize the violet formazan crystals. The measurement of absorbance was carried out on reader Tecan Infinite M200Pro at 570 nm. Dark viability was measured in parallel under the same conditions without irradiation.
Background: Tetrazolium assays rely on reduction of a dye to a coloured formazan, in cell work by metabolically active cells.

Series [3] has as its system G361 cells. Description: Flow cytometric detection of cell death (sub-G1 populations). Particulars: for number of cells in sub-G1 population: G361 cells. In kind it is cell-based, human. The protocol: as §1
Asynchronous cells were seeded and, after a pre-incubation period, treated with compound 3g for 4 h, irradiated and after further 24 h of incubation, samples were fixed and stained with propidium iodide. DNA content was analyzed by flow cytometry using a 488 nm laser (BD FACS Verse with software BD FACSuite™, version 1.0.6.) and cell cycle distribution was analyzed using ModFit LT (Verity Software House).

The test system of series [4] is caspases 3 and 7. Briefly: Caspase-3/7 assay. In kind it is cell-based, human. Particulars: G361 cells; 1.1 μM+10 J/cm^2. How it is done: The cell lysates were incubated for 4 h with 100 μM Ac-DEVD-AMC (the substrate of caspases 3 and 7) in the assay buffer (25 mM PIPES, 2 mM EGTA, 2 mM MgCl2, 5 mM DTT, pH 7.3). The fluorescence of the product was measured using a Fluoroskan Ascent microplate reader (Labsystems) at 355/460 nm (excitation/emission).
To confirm apoptosis as a mechanism of cell death, activity of pro-apoptotic caspases 3 and 7, which are involved in mediating cell death signalling transduction, was quantified upon treatment with compound 3g and light irradiation (FIG. 1).

Series [5] concerns G361 cells. Briefly: DNA damage and apoptotic cell death by immunoblotting analysis. Particulars: 24 h. Type of series: cell-based, human. The protocol:
To confirm DNA damage caused by a combination of compound 3g and irradiation in G361 cells, phosphorylation of histone H2A.X at Ser-139 (γH2A.X), which is a well-accepted marker of DNA damage, was evaluated using immunoblotting analysis (FIG. 2). The cells were treated with different doses (0.1, 0.3 or 1.1 μM) of compound 3g for 4 h, then either kept in dark or exposed to light with a total irradiation dose of 10 J/cm^2 and cultivated for subsequent 24 h. After this period, the cells were harvested and analyzed by immunoblotting.
The cell lysates were prepared in RIPA buffer. Equal protein amounts were loaded and separated on SDS-polyacrylamide gels, electroblotted onto nitrocellulose membranes and after blocking, overnight incubation with specific primary antibodies and incubation with peroxidase-conjugated secondary antibodies, the peroxidase activity was detected with SuperSignal West Pico reagents (Thermo Scientific) using a CCD camera LAS-4000 (Fujifilm). All primary antibodies were diluted in TBS containing 4% BSA and 0.1% Tween 20. The specific antibodies were purchased from Cell Signaling (anti-PARP-1, clone 46D11; anti-caspase 7; HRP-linked secondary antibodies), Santa Cruz Biotechnology (anti-β-actin, clone C4), Millipore (anti-phospho-histone H2A.X, Ser139, clone JBW301).
The cleavage of PARP-1, an enzyme involved in DNA repair, which gets cut and inactivated by caspases during apoptotic cell death, was also apparent when combining said concentration and irradiation dose. […] It confirms that the above observation is a consequence of a photodynamic effect.

The test system of series [6] is G361 cells. Briefly: Evaluation of cellular viability by microscopy (propidium iodide staining). Type of series: cell-based, human. Particulars: 1.1 μM+10 J/cm^2, 16 h after irradiation. How it is done: G361 cells were treated with compound 3g, 4 h later irradiated with 10 J/cm^2 and further cultivated for 16 h. Control cells were treated with the same compound without irradiation. After the incubation period, cells were stained with propidium iodide (final concentration 10 μg/mL) to evaluate their viability by fluorescence microscopy. In parallel, the morphology of treated cells was evaluated by light microscopy. Experiment clearly confirmed the ability of compound 3g to affect cellular viability after light irradiation in dose-dependent manner as shown by positive propidium iodide staining (>95% of analyzed cells at 1.1 μM of compound 3g+10 J/cm^2) as well as significant morphological changes reflecting ongoing cellular death (FIG. 3).

The structures appear in SMILES notation. Like-named read-outs stand apart in the source and are kept apart here.

The text below walks through data of patent publication US12503437B2, “1,1-dimethyl-2-[(E)-2-phenylethenyl]-1H-benzo[e]indole derivatives and uses thereof” (Kaunas University of Technology, priority 2023, dated 2025).

Turning to `CC1(C)C(/C=C/c2ccc(C#N)c(F)c2)=Nc2ccc3ccccc3c21` [Compound 3g, 4-[(E)-2-(1,1-Dimethyl-1H-benzo[e]indol-2-yl)ethenyl]-2-fluorobenzonitrile], the Stokes shift in series [1] worked out at 102 nm. For the same compound, in series [1], the λabs turned out to be 433 nm. In series [1] (excitation wavelength 380 nm), this compound yielded a λem of 535 nm. In addition, the EC50 is 7.6 ± 0.9 µM in series [2] (G-361, G361 cells, light energy: Dark (Table 4), read-out: EC50 ± SD); 6.2 µM in series [2] (G-361, dark kept G361 cells, 4 h treatment, further 72 h, MTT, read-out: G361 - EC50, Dark); 1.2 ± 0.3 µM in series [2] (G-361, light or radiation study, G361 cells, light energy 2.5 J/cm^2 (Table 4), read-out: EC50 ± SD); 0.7 ± 0.1 µM in series [2] (G-361, light or radiation study, G361 cells, light energy 10 J/cm^2 (Table 4), read-out: EC50 ± SD); 0.6 µM in series [2] (G-361, light or radiation study, light irradiated (414 nm, 10 J/cm^2) G361 cells, 4 h treatment, irradiation, further 72 h, MTT, read-out: G361 - EC50, 10 J/cm^2). The “number of cells in sub-G1 population” value is 0 (number of cells in sub-G1 population <10% (0)) in series [3] (0.3 μM, 1.1 J/cm^2, 24 h after irradiation); 0 (number of cells in sub-G1 population <10% (0)) in series [3] (0.3 μM, 3.3 J/cm^2, 24 h after irradiation); 0 (number of cells in sub-G1 population <10% (0)) in series [3] (0.3 μM, Dark, 24 h); 0 (number of cells in sub-G1 population <10% (0)) in series [3] (1.1 μM, 1.1 J/cm^2, 24 h after irradiation); “+ (10-50% (+))” in series [3] (1.1 μM, 3.3 J/cm^2, 24 h after irradiation); 0 (number of cells in sub-G1 population <10% (0)) in series [3] (1.1 μM, Dark, 24 h). Besides, the “number of cells in sub-G1 population” value in series [3] (3.3 μM, 1.1 J/cm^2, 24 h after irradiation) is “+ (10-50% (+))”; in series [3] (3.3 μM, 3.3 J/cm^2, 24 h after irradiation) it was “++ (>50% (++))”; in series [3] (3.3 μM, Dark, 24 h) it was 0 (number of cells in sub-G1 population <10% (0)). In addition, in series [3] (treated and irradiated G361 cells, concentration and light irradiation dependent), the “sub-diploid (sub-G1) populations” value is recorded as “increase”. The “capacity to induce apoptosis (caspase 3/7 activity)” value in series [4] was “clearly apparent”. In series [5] (G361 cells kept in the dark, 0.1, 0.3 or 1.1 μM), the “H2A.X phosphorylation (Ser-139, γH2A.X)” value was “did not show any H2A.X phosphorylation”. The “H2A.X phosphorylation (Ser-139, γH2A.X) level” value in series [5] (G361 cells, 1.1 μM+10 J/cm^2) was “massive increase”. Besides, the “cleavage of PARP-1” value in series [5] (G361 cells, 1.1 μM+10 J/cm^2) is reported as “apparent”. In addition, in series [5] (G361 cells, treated and irradiated (10 J/cm^2)), the “caspase 7 cleavage” value is listed as “cleavage activation of caspase 7”. Moreover, the “positive propidium iodide staining” value in series [6] is > 95 % of analyzed cells.
